Test results from article PMC4890880 (ACS infectious diseases, 2016).
Counter-ions that a name gives are not always drawn. Like-named read-outs stand apart in the source and are kept apart here.

Tests used:
[1] = system: P. falciparum 3D7 parasites; assay: Asexual erythrocytic-stage SYBR Green I proliferation assay, 1536-well; format: cell-based, Plasmodium falciparum
[2] = system: Plasmodium berghei (Pb-Luc) exoerythrocytic-stage parasites; conditions: read-out: P. berghei (liver) IC50; Table S1, validation set of 50 antimalarials; Pb-Luc
[3] = system: Plasmodium berghei (Pb-Luc) exoerythrocytic-stage parasites; assay: microbe, parasite or virus in culture
[4] = read-out: P. falciparum (blood) IC50, Table S1, validation set of 50 antimalarials
[5] = Plasmodium falciparum, 3D7, read-out: P. falciparum (blood) IC50, Table S1, validation set of 50 antimalarials
[6] = read-out: P. berghei (liver) IC50, Table S1, validation set of 50 antimalarials, Pb-Luc
[7] = Plasmodium falciparum, 3D7, read-out: P. falciparum (blood) IC50
[8] = read-out: P. berghei (liver) IC50

OC(c1cc(C(F)(F)F)nc2c(C(F)(F)F)cccc12)C1CCCCN1 (racemic) [Mefloquine (Racemic), Mefloquine, reference compound]
IC50 [1, 4]: < 0.4 nM | IC50 [2]: 3060 nM

CCCCC[C@H]1CN[C@H](C(=O)N[C@H]([C@H]2O[C@H](SC)[C@H](O)[C@@H](O)[C@H]2O)[C@@H](C)Cl)C1 (relative stereo) [Cis-Mirincamycin, reference compound]
IC50 [1, 4]: 7560 nM | IC50 [2]: > 12500 nM

CCN(CC)CCCNc1ccnc2cc(Cl)ccc12 [AQ-13, reference compound]
IC50 [1, 4]: 8.7 nM | IC50 [2]: 3160 nM

CCN(CC)Cc1cc(Nc2ccnc3cc(Cl)ccc23)ccc1O [Amodiaquine, reference compound]
IC50 [1, 5]: > 62500 nM | IC50 [3, 6]: 1590 nM

CO[C@H]1O[C@@H]2O[C@@]3(C)CC[C@H]4[C@H](C)CC[C@@H]([C@H]1C)[C@@]24OO3 [Artemether, reference compound]
IC50 [1, 5]: < 0.4 nM | IC50 [3, 6]: 3140 nM

C[C@@H]1CC[C@H]2[C@@H](C)C(=O)O[C@@H]3O[C@@]4(C)CC[C@@H]1[C@]32OO4 [Artemisinin, reference compound]
IC50 [1, 5]: 4.7 nM | IC50 [3, 6]: 1720 nM

C[C@H]1[C@H](N2CCS(=O)(=O)CC2)O[C@@H]2O[C@@]3(C)CC[C@H]4[C@H](C)CC[C@@H]1[C@@]24OO3 [Artemisone, reference compound]
IC50 [1, 5]: 0.7 nM | IC50 [3, 6]: 178 nM

C[C@H]1[C@@H](O)O[C@@H]2O[C@@]3(C)CC[C@H]4[C@H](C)CC[C@@H]1[C@@]24OO3 [Artenimol, reference compound]
IC50 [1, 5]: < 0.4 nM | IC50 [3, 6]: 1560 nM

C[C@H]1[C@H](OC(=O)CCC(=O)O)O[C@@H]2O[C@@]3(C)CC[C@H]4[C@H](C)CC[C@@H]1[C@@]24OO3 [Artesunate, reference compound]
IC50 [1, 5]: 0.9 nM | IC50 [3, 6]: 246 nM

CC[C@H]1OC(=O)[C@H](C)[C@@H](O[C@H]2C[C@@](C)(OC)[C@@H](O)[C@H](C)O2)[C@H](C)[C@@H](O[C@@H]2O[C@H](C)C[C@H](N(C)C)[C@H]2O)[C@](C)(O)C[C@@H](C)CN(C)[C@H](C)[C@@H](O)[C@]1(C)O [Azithromycin, reference compound]
IC50 [1, 5]: 257 nM | IC50 [3, 6]: > 12500 nM

CCN(CC)CCCC(C)Nc1ccnc2cc(Cl)ccc12 (centres unmarked) [Chloroquine, reference compound]
IC50 [1, 7]: 2.1 nM | IC50 [3, 8]: > 12500 nM

CC(C)NC(=N)NC(=N)Nc1ccc(Cl)c(Cl)c1 [Chlorproguanil HCL, reference compound]
IC50 [1, 4]: 4720 nM | IC50 [2]: 500 nM

CC1(C)N=C(N)N=C(N)N1c1ccc(Cl)cc1 [Cycloguanil, reference compound]
IC50 [1, 5]: 3.1 nM | IC50 [3, 6]: 7 nM

C[C@@H]1C[C@@H]([C@H](O)CC2CC(=O)NC(=O)C2)C(=O)[C@@H](C)C1 [Cycloheximide, reference compound]
IC50 [1, 7]: 1.8 nM | IC50 [3, 8]: 20.7 nM

Nc1ccc(S(=O)(=O)c2ccc(N)cc2)cc1 [Dapsone, reference compound]
IC50 [1, 5]: > 62500 nM | IC50 [3, 6]: 2440 nM

CC(=O)N(O)CCCCCNC(=O)CCC(=O)N(O)CCCCCNC(=O)CCC(=O)N(O)CCCCCN [Deferoxamine, reference compound]
IC50 [1, 5]: > 10000 nM | IC50 [3, 6]: > 12500 nM

C[C@]12CC[C@H](OS(=O)(=O)O)CC1=CC[C@@H]1[C@@H]2CC[C@]2(C)C(=O)CC[C@@H]12 [Dehydroepiandrosterone sulphate, reference compound]
IC50 [1, 4]: > 62500 nM | IC50 [2]: > 12500 nM

C[C@H]1c2cccc(O)c2C(O)=C2C(=O)[C@]3(O)C(O)=C(C(N)=O)C(=O)[C@@H](N(C)C)[C@@H]3[C@@H](O)[C@@H]21 [Doxycyclin, reference compound]
IC50 [1, 4]: 8820 nM | IC50 [2]: 11600 nM

O=CN(O)CCCP(=O)(O)O [Fosmidomycin, reference compound]
IC50 [1, 5]: > 10000 nM | IC50 [3, 6]: > 12500 nM
